Experimental data from PubChem BioAssay (NCI).
Where “and” joins values, the source holds several entries; their conditions need not be identical. Identical values can stand only once.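 Compound exposure: 48 hours, 5 concentrations, 96-well plates. GI50 is the concentration that inhibits growth by half. Definition used: TGI = concentration required for complete inhibition of growth.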

Tests used:
Experiment in all cases: growth of human tumour cells (NCI), 48 h
[1] = tested on: OVCAR-3 ovarian
[2] = tested on: M19-MEL melanoma
[3] = tested on: SK-MEL-28 melanoma
[4] = tested on: SW-620 colon
[5] = tested on: ACHN renal
[6] = tested on: UACC-62 melanoma
[7] = tested on: NCI-H226 lung
[8] = tested on: HOP-62 NSCLC
[9] = tested on: SNB-78 CNS
[10] = tested on: BT-549 breast

Row | SMILES | TGI [1] | TGI [2] | TGI [3] | TGI [4] | TGI [5] | TGI [6] | TGI [7] [µM] | TGI [8] | TGI [9] [µM] | GI50 [2] [µM] | GI50 [3] [µM] | GI50 [4] [µM] | GI50 [5] [µM] | GI50 [6] [µM] | GI50 [8] [µM] | TGI [10] [µM] | GI50 [1] [µM] | GI50 [10] [µM] | GI50 [7] [µM]
1 | CN(C)CC(/C(Cc1ccccc1)=N\NC(=O)c1ccncc1)c1ccccc1 (stereo unspecified) | > 100 µM | > 100 µM | > 100 µM | > 100 µM | 97.7 µM | > 100 µM | > 100 | > 100 µM | – | – | – | – | – | – | – | – | – | – | –
2 | N/N=C(\CC1OC(=O)c2ccccc21)c1ccco1 (stereo unspecified) | > 100 µM | > 100 µM | > 100 µM | > 100 µM | > 100 µM | > 100 µM | > 100 | – | – | – | – | – | – | – | – | – | – | – | –
3 | CC1(CO)OC1COCc1ccccc1 (stereo unspecified) | > 100 µM | – | – | > 100 µM | > 100 µM | > 100 µM | > 100 | > 100 µM | > 100 | – | – | – | – | – | – | – | – | – | –
4 | CC1Cc2c(N)nc(NN)nc2NC1=O (stereo unspecified) | > 100 µM | > 100 µM | > 100 µM | > 100 µM | > 100 µM | > 100 µM | > 100 | > 100 µM | – | – | – | – | – | – | – | – | – | – | –
5 | CC(=O)OCSc1ncnc2c1ncn2CN1CCOCC1 | > 100 µM | > 100 µM | > 100 µM | > 100 µM | > 100 µM | > 100 µM | > 100 | > 100 µM | > 100 | – | – | – | – | – | – | – | – | – | –
6 | O=C(O)c1c2c(c(C(=O)O)c3ccccc13)-c1ccccc1-2 | 84 µM | > 100 µM | > 100 µM | > 100 µM | > 100 µM | 65.9 µM | > 100 | > 100 µM | > 100 | – | – | – | – | – | – | – | – | – | –
7 | COc1ccc(C2S/C(=C\c3cc(OC)c(OC)c(OC)c3)C(=O)N2NC(=O)Cc2ccccc2)cc1 (stereo unspecified) | – | > 100 µM | > 100 µM | > 100 µM | > 100 µM | > 100 µM | > 100 | > 100 µM | – | – | – | – | – | – | – | – | – | – | –
8 | COc1ccc(C(=O)C(c2ccc(OC)cc2)C2(O)C(=O)Nc3c(C)cc(Cl)cc32)cc1 (stereo unspecified) | > 100 µM | 44.2 µM | > 100 µM | > 100 µM | > 100 µM | 54.2 µM | > 100 | > 100 µM | > 100 | – | – | – | – | – | – | – | – | – | –
9 | O=[N+]([O-])c1ccc(Sc2c3ccccc3nc3ccccc23)cc1 | > 100 µM | > 100 µM | > 100 µM | > 100 µM | > 100 µM | > 100 µM | > 100 | > 100 µM | > 100 | – | – | – | – | – | – | – | – | – | –
10 | Cc1cccc(C)c1NC(=O)CCCC(=O)CC(=O)/C=C/c1ccccc1 | > 100 µM | > 100 µM | > 100 µM | > 100 µM | > 100 µM | > 100 µM | – | – | > 100 | – | – | – | – | – | – | – | – | – | –
11 | CCOC(=O)/C(=C\c1ccc(OCc2ccccc2)c(OC)c1)C(=O)c1ccccc1 | 58.1 µM | 50 µM | 30.4 µM | 40 µM | 34.8 µM | 48.4 µM | 42.5 | 33.6 µM | 76.8 | – | – | – | – | – | – | – | – | – | –
12 | O=C(CNC(=O)OCc1ccccc1)Oc1ccccc1 | > 100 µM | > 100 µM | > 100 µM | > 100 µM | > 100 µM | > 100 µM | > 100 | > 100 µM | > 100 | – | – | – | – | – | – | – | – | – | –
13 | CC(C)=CC(=O)Oc1ccc([N+](=O)[O-])cc1 | > 100 µM | > 100 µM | – | > 100 µM | > 100 µM | > 100 µM | > 100 | > 100 µM | > 100 | – | – | – | – | – | – | – | – | – | –
14 | CCOc1cc2c(cnc3c4cc(OC)c(OC)cc4ccc23)cc1OC | > 100 µM | > 100 µM | > 100 µM | > 100 µM | > 100 µM | > 100 µM | – | > 100 µM | – | – | – | – | – | – | – | – | – | – | –
15 | COC1/C(=C\C(=O)OC(C)(C)C)c2ccccc2N1C(C)=O (stereo unspecified) | > 100 µM | > 100 µM | > 100 µM | > 100 µM | > 100 µM | > 100 µM | – | > 100 µM | > 100 | – | – | – | – | – | – | – | – | – | –
16 | CC(=O)OCC1OC(OC2CC3C(C)(C)C(OC(C)=O)CC[C@]3(C)C3CCC45CC4(CC[C@H]5C(C)CC(O)[C@@H](O)C(C)(C)O)[C@]23C)C(O)C(O)C1O (stereo partly specified) | 13.3 µM and 19.3 µM | 13.7 µM and 12.7 µM | 13.7 µM and 17.8 µM | 14 µM and 13.7 µM | 14.3 µM and 29 µM | 12.2 µM and 16.5 µM | 13.3 | 11.8 µM and 25.9 µM | – | 3.18 | 5.21 | 3.54 | 15 | 4.9 | 12.1 | – | – | – | –
17 | N#CCc1ccc(C(C#N)/C(CCCC(=O)Nc2cccc([N+](=O)[O-])c2)=N\NC(=O)NN)cc1 (stereo unspecified) | > 100 µM | > 100 µM | > 100 µM | > 100 µM | > 100 µM | > 100 µM | > 100 | > 100 µM | > 100 | – | – | – | – | – | – | – | – | – | –
18 | COc1ccc2c([nH]c3cc(O)c(C)cc32)c1C=O | > 25 µM | > 25 µM | > 25 µM | > 25 µM | > 25 µM | > 25 µM | > 25 | > 25 µM | > 25 | – | – | – | – | – | – | – | – | – | –
19 | CC(=O)NC1=C(Nc2ccc(C)cc2)C(=O)c2ccccc2C1=O | 45.7 µM | 17.5 µM | 39.1 µM | 27.7 µM | 47.5 µM | 23 µM | 42.5 | 37.6 µM | > 75 | – | – | – | – | – | – | – | – | – | –
20 | O=C1CCCCCCCCCCC(=O)C2CCOCCOCCOCCC1Cc1cccc(n1)C2 | > 100 µM | > 100 µM | > 100 µM | > 100 µM | > 100 µM | > 100 µM | > 100 | > 100 µM | > 100 | – | – | – | – | – | – | – | – | – | –
21 | COc1cc2c(c(OC)c1OC)-c1ccc(SC)c(=O)cc1[C@@H](NC(=O)c1ccc(OC(C)=O)cc1)CC2 | 0.034 µM | > 100 µM | 60 µM | 31 µM | > 100 µM | 26.9 µM | 0.0528 | 22.2 µM | – | – | 15 | – | – | – | 0.0126 | – | – | – | –
22 | CC1(C)COCN1COC1CCCCC1 | > 100 µM | – | > 100 µM | > 100 µM | > 100 µM | > 100 µM | > 100 | > 100 µM | – | – | – | – | – | – | – | > 100 | – | – | –
23 | CC(=O)C1CC2(c3ccc(C)cc3)C(c3ccc(C)cc3)=C(c3ccc(C)cc3)C1(c1ccc(C)cc1)S2=O (stereo unspecified) | > 100 µM | – | > 100 µM | > 100 µM | > 100 µM | > 100 µM | > 100 | > 100 µM | – | – | > 100 | > 100 | > 100 | > 100 | > 100 | > 100 | > 100 | > 100 | > 100
24 | CC([C@H]1CCC2C3CCC4C[C@@H](NC=O)CC[C@]4(C)C3CC[C@@]21C)N(C)C (stereo partly specified) | 9.01 µM | – | 3.08 µM | 3.95 µM | 18 µM | 4.08 µM | 21 | 5.19 µM | – | – | 1.65 | 1.85 | 5.17 | 2.04 | 2.15 | 25.1 | 2.55 | 6.95 | 5.47
